Experimental data: patent US20070082871A1, “Antiresorptive mutual salt of raloxifene and bisphosphonic acid” (HANMI PHARM. CO., LTD., priority 2003, published 2007)
Read-outs that look alike come from different tables or passages of the source.

Tests used:
ovary-removed rats [1] = conditions: for Bone volume Vol.: (bone volume)/(metaphysis volume) × 100; for Trabecular volume Vol.: (trabecular volume)/(epiphysis volume) × 100; for BMD / Stiffness Max. load / Stiffness Stiff.: femur; for BMD / Stiffness Max. load / Stiffness Stiff. / Blood calcium density Conc.: oophorectomy rats, oral once a day 8 weeks; for Stiffness Relativ. Stiff.: relative Max. Load value, OVX control = 1.00; for Trabecular volume Relativ Vol / BMD Relativ. Density / Blood calcium density Relativ. Conc. / Bone volume Relativ Vol: relative to OVX control = 1.00
Description: (§1) In order to investigate the effects of the inventive mutual salts on BMD, bone stiffness, serum cholesterol level and calcium density, in vivo tests were carried out as follows.
(§2) Also, 1.5% carboxymethylcellulose alone was administrated in a same manner to each of ovary-removed rats (group OVX) and normal rats (control, group Sham). After 8 weeks, a femur sample was obtained from each test groups to measure BMD, maximum load, stiffness, trabecular volume of epiphysis, bone volume of metaphysis, blood cholesterol level and blood calcium density.

ovary-removed rats [2] = experiment: In vivo test: blood cholesterol level; design: species or system rats (Sprague-Dawley); conditions: for Total blood cholesterol Conc.: oophorectomy rats, oral once a day 8 weeks; for Total blood cholesterol Relativ. Conc.: relative to OVX control = 1.00
Description: as §1, §2

[3] = in words, as compared with the individual raloxifene hydrochloride or alendronate

## NCCCC(O)(P(=O)(O)O)P(=O)(O)O [Alendronate, sodium alendronate trihydrate]
ovary-removed rats [1]; 1.0 mg/kg (T1)
  Bone volume Vol.: 56.46 ± 17.93%
  Trabecular volume Vol.: 20.27 ± 7.76%
  BMD: 92.57 ± 5.64 mg/cm^2
  Stiffness Max. load: 19.22 ± 2.14 N
  Stiffness Stiff.: 19.02 ± 3.86 N/mm
  Stiffness Relativ. Stiff.: 0.88
  Trabecular volume Relativ Vol: 1.75
ovary-removed rats [2]; 1.0 mg/kg (T1)
  Total blood cholesterol Conc.: 98.387 ± 17.23 mg/dL
  Total blood cholesterol Relativ. Conc.: 0.93

## Cl.O=C(c1ccc(OCCN2CCCCC2)cc1)c1c(-c2ccc(O)cc2)sc2cc(O)ccc12 [Raloxifene hydrochloride, 6-hydroxy-2-(4-hydroxyphenyl)benzo[b]thien-3-yl 4-[2-(1-piperidinyl)ethoxy]phenyl methanone hydrochloride]
ovary-removed rats [1]; 1.9 mg/kg (T2)
  Bone volume Vol.: 75.96 ± 17.61%
  Trabecular volume Vol.: 11.25 ± 2.57%
  BMD: 91.09 ± 6.98 mg/cm^2
  Stiffness Max. load: 30.00 ± 3.24 N
  Stiffness Stiff.: 33.07 ± 9.55 N/mm
  Blood calcium density Conc.: 9.20 ± 0.33 mg/dL
  Stiffness Relativ. Stiff.: 1.37
  BMD Relativ. Density: 1.17
  Blood calcium density Relativ. Conc.: 0.98
  Bone volume Relativ Vol: 2.64
  Trabecular volume Relativ Vol: 0.97
ovary-removed rats [1]; 5.6 mg/kg (T3)
  Bone volume Vol.: 65.56 ± 15.33%
  Trabecular volume Vol.: 15.15 ± 4.08%
  BMD: 93.76 ± 6.22 mg/cm^2
  Stiffness Max. load: 32.09 ± 4.37 N
  Stiffness Stiff.: 38.64 ± 15.2 N/mm
  Blood calcium density Conc.: 9.42 ± 0.23 mg/dL
  Stiffness Relativ. Stiff.: 1.46
  BMD Relativ. Density: 1.20
  Blood calcium density Relativ. Conc.: 1.00
  Bone volume Relativ Vol: 2.28
  Trabecular volume Relativ Vol: 1.31
ovary-removed rats [2]; 1.9 mg/kg (T2)
  Total blood cholesterol Conc.: 41.40 ± 9.71 mg/dL
  Total blood cholesterol Relativ. Conc.: 0.39
ovary-removed rats [2]; 5.6 mg/kg (T3)
  Total blood cholesterol Conc.: 40.83 ± 14.2 mg/dL
  Total blood cholesterol Relativ. Conc.: 0.39

## raloxifene alendronate pentahydrate
ovary-removed rats [1]; 2.9 mg/kg (T4)
  Bone volume Vol.: 68.00 ± 9.00%
  Trabecular volume Vol.: 17.81 ± 2.49%
  BMD: 99.28 ± 6.25 mg/cm^2
  Stiffness Max. load: 26.50 ± 0.73 N
  Stiffness Stiff.: 35.34 ± 11.3 N/mm
  Blood calcium density Conc.: 6.69 ± 0.94 mg/dL
  Stiffness Relativ. Stiff.: 1.21
  BMD Relativ. Density: 1.27
  Blood calcium density Relativ. Conc.: 0.71
  Bone volume Relativ Vol: 2.37
  Trabecular volume Relativ Vol: 1.54
ovary-removed rats [1]; [3]
  BMD, bone stiffness, trabecular volume and bone volume: markedly enhances
  blood calcium level: effectively controls
ovary-removed rats [2]; [3]
  blood cholesterol level: effectively controls
ovary-removed rats [2]; 2.9 mg/kg (T4)
  Total blood cholesterol Conc.: 66.86 ± 9.68 mg/dL
  Total blood cholesterol Relativ. Conc.: 0.64
